The test system of the first experiment is Vespa mandarinia. The experiment can be described thus: Control Test 1: aerosol sprayed on one test wasp in metal mesh cage, control time. The class given is in vivo. The note with it: 2 g aerosol sprayed 1 second from approx. 30 cm, observed up to 180 seconds. An excerpt: (§1) Ten grams of ethyl lactate, which is an active ingredient under the present invention, was put in an aerosol can as a liquid concentrate, and then a valve part was installed on the can, after which dimethyl ether was filled through the valve part as a propellant until the weight ratio of the liquid concentrate and the propellant became 1:2, and then a spray button was installed, to obtain 30 g of aerosol test sample in Example 1.
(§2) In Examples 2 to 28 and Comparative Examples 1 to 6, the liquid concentrates shown in Table 1 below were used to obtain 30 g of respective test samples in the same manner as in Example 1.
(§3) After spraying, the time it took for the test wasp to stop behaving normally and begin grooming abnormally and showing agitated behaviors (flapping of wings), and eventually drop to the bottom of the metal gauge, was measured as the control time (in seconds). In Table 1, “IPA” stands for isopropanol, while “%” refers to % by weight.
(§4) It should be noted that “turpentine oil” in Examples 2 and 3 is a plant-based essential oil containing 85% by weight or more of α-pinene which is an active ingredient under the present invention, while Comparative Example 5 contains 1% by weight of isopropyl myristate as a dissolving aid.
Take `C=CC(C)(O)CCC=C(C)C` (stereo not drawn) [compound 3, Linalool]: the Control time is above 180 s.

Another experiment has as its system Vespa ducalis. The experiment is described as above. The class given is in vivo. As to conditions: 2 g aerosol sprayed 1 second from approx. 30 cm, observed up to 180 seconds.
Excerpt: as §1, §2, §3, §4
On to `CC(C)[C@@H]1CC[C@@H](C)CC1=O` [Example 5, Menthone], for which the Control time was below 1 s.

A further experiment deals with Polistes rothneyi. The experiment is described as above. The note with it: 2 g aerosol sprayed 1 second from approx. 30 cm, observed up to 180 seconds. The class given is in vivo.
Excerpt: as §1, §2, §3, §4
Molecule `COC(=O)c1ccccc1` [Example 6, Methyl benzoate] gave a Control time below 1 s.

For the molecule `CCOC(=O)c1ccccc1` [Example 7, Ethyl benzoate], the Control time is below 1 s.

In turn, `CC(C)=CCCC(C)=CCCC(C)=CCO` [Example 8, Farnesol] displayed a Control time below 1 s.

As to `CC(C)=C1CC[C@@H](C)CC1=O` [Example 10, Pulegone], the Control time is below 1 s.

With `CC(C)=CCCC(C)=CC=O` [Example 11, Citral], the Control time is below 1 s.

As for `CC(C)[C@]12CC(=O)[C@H](C)[C@H]1C2` [Example 12, Thujone], the Control time is below 1 s.

Turning to `CCCCCC(O)CC` (stereo not drawn) [Example 13, 3-octanol], the Control time was below 1 s.

`O=C(Cc1ccccc1)OCc1ccccc1` [Example 14, Benzyl phenyl acetate] registered a Control time below 1 s.

In the case of `CC12CCC(CC1)C(C)(C)O2` [Example 20, Cineol], the Control time was below 1 s.

The molecule α-turpentine [Example 9] yielded a Control time below 1 s.

In the next experiment the test system is Polistes jokahamae. The experiment is described as above. The class given is in vivo. The note with it: 2 g aerosol sprayed 1 second from approx. 30 cm, observed up to 180 seconds.
Excerpt: as §1, §2, §3, §4
Molecule `CCOC(=O)C(C)O` (stereo not drawn) [Example 1, Ethyl lactate] displayed a Control time below 1 s.

Molecule `CC(C)[C@@H]1CC[C@@H](C)CC1=O` [Example 4, Menthone] gave a Control time below 1 s.

`CC1CCC(C(C)C)C(O)C1` (stereo not drawn) [Example 21, Menthol]: the Control time was below 1 s.

In the case of `C=C(C)C1CC=C(C)C(=O)C1` (stereo not drawn) [Example 23, Carvone], the Control time is below 1 s.

`COC(=O)C(C)O` (stereo not drawn) [Example 26, Methyl lactate]: the Control time is below 1 s.

Take `CCCCOC(=O)C(C)O` (stereo not drawn) [Example 27, n-butyl lactate]: the Control time is below 1 s.

On to `COC(=O)Cc1ccccc1` [Example 28, Methyl phenyl acetate], for which the Control time was below 1 s.

Molecule `CC(C)O` [compound 6, IPA, reference compound] yielded a Control time above 180 s.

The subject of the next experiment is Vespa simillima. The experiment is described as above. The class given is in vivo. The note with it: 2 g aerosol sprayed 1 second from approx. 30 cm, observed up to 180 seconds.
Excerpt: as §1, §2, §3, §4
For the molecule `CC(=O)OC1CC(C)CCC1C(C)C` (stereo not drawn) [compound 2, Menthyl acetate], the Control time is above 180 s.

These data come from patent US20220151227A1, “CARNIVOROUS WASP CONTROL AGENT” (EARTH CORPORATION, priority 2019, published 2022).
